# Legend:
# [1] = system: ETK-1 (Biliary Tract Carcinoma); assay: Bliss excess, mean over the matrix (fraction); higher = more synergy
# How it was run: (§1)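 Cell lines in DMEM/F12 or RPMI with 10% FBS were plated in 1536-well plates, held 24 hours at 37°C, 5% CO2, then given two-drug dose matrices for 72 hours (DMSO typically 0.2%). Viability was read by CellTiter-Glo 2.0 luminescence and scaled as inhibition from 0 (vehicle wells) to 1 (blank wells). Combination Emax is the second-highest inhibition in the matrix; Bliss excess is observed combination effect minus expected EA + EB − EA·EB, EA and EB being single-agent effects.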
# [2] = system: JHH-6 (Hepatocellular Carcinoma); assay: as above
# How it was run: as §1
# [3] = system: HCC-827 (Lung Adenocarcinoma); assay: as above
# How it was run: as §1
# [4] = system: 647-V (Bladder Carcinoma); assay: as above
# How it was run: as §1
# [5] = system: EFM-192A (Breast Carcinoma); assay: as above
# How it was run: as §1
# [6] = system: HuO9 (Osteosarcoma); assay: as above
# How it was run: as §1
# [7] = system: HCC1143 (Breast Carcinoma); assay: as above
# How it was run: as §1
# [8] = system: NCI-H1688 (Small Cell Lung Carcinoma); assay: as above
# How it was run: as §1
# [9] = system: PA-TU-8902 (Pancreatic Carcinoma); assay: as above
# How it was run: as §1
# [10] = system: A172 (Glioblastoma); assay: as above
# How it was run: as §1
# [11] = system: GDM-1 (Acute Myeloid Leukemia); assay: as above
# How it was run: as §1
# [12] = system: TYK-nu (Ovarian Carcinoma); assay: as above
# How it was run: as §1
# [13] = system: MES-SA (Other Solid Carcinomas); assay: as above
# How it was run: as §1
# [14] = system: KG-1 (Acute Myeloid Leukemia); assay: as above
# How it was run: as §1
# [15] = system: RCC10RGB (Kidney Carcinoma); assay: as above
# How it was run: as §1
# [16] = system: SNU-61 (Colorectal Carcinoma); assay: as above
# How it was run: as §1
# [17] = system: U-118-MG (Low Grade Glioma); assay: as above
# How it was run: as §1
# [18] = system: MCF7 (Breast Carcinoma); assay: as above
# How it was run: as §1
# [19] = system: HOP-92 (Non-Small Cell Lung Carcinoma); assay: as above
# How it was run: as §1
# [20] = system: SKN-3 (Head and Neck Carcinoma); assay: as above
# How it was run: as §1
# [21] = system: ETK-1 (Biliary Tract Carcinoma); assay: combination Emax (second highest fraction inhibited in the dose matrix, 72 h); higher = more inhibition; extreme values may be limits of the assay
# How it was run: as §1
# [22] = system: JHH-6 (Hepatocellular Carcinoma); assay: as above
# How it was run: as §1
# [23] = system: HCC-827 (Lung Adenocarcinoma); assay: as above
# How it was run: as §1
# [24] = system: 647-V (Bladder Carcinoma); assay: as above
# How it was run: as §1
# [25] = system: EFM-192A (Breast Carcinoma); assay: as above
# How it was run: as §1
# [26] = system: HuO9 (Osteosarcoma); assay: as above
# How it was run: as §1
# [27] = system: HCC1143 (Breast Carcinoma); assay: as above
# How it was run: as §1
# [28] = system: NCI-H1688 (Small Cell Lung Carcinoma); assay: as above
# How it was run: as §1
# [29] = system: PA-TU-8902 (Pancreatic Carcinoma); assay: as above
# How it was run: as §1
# [30] = system: A172 (Glioblastoma); assay: as above
# How it was run: as §1
# [31] = system: GDM-1 (Acute Myeloid Leukemia); assay: as above
# How it was run: as §1
# [32] = system: TYK-nu (Ovarian Carcinoma); assay: as above
# How it was run: as §1
# [33] = system: MES-SA (Other Solid Carcinomas); assay: as above
# How it was run: as §1
# [34] = system: KG-1 (Acute Myeloid Leukemia); assay: as above
# How it was run: as §1
# [35] = system: RCC10RGB (Kidney Carcinoma); assay: as above
# How it was run: as §1
# [36] = system: SNU-61 (Colorectal Carcinoma); assay: as above
# How it was run: as §1
# [37] = system: U-118-MG (Low Grade Glioma); assay: as above
# How it was run: as §1
# [38] = system: MCF7 (Breast Carcinoma); assay: as above
# How it was run: as §1
# [39] = system: HOP-92 (Non-Small Cell Lung Carcinoma); assay: as above
# How it was run: as §1
# [40] = system: SKN-3 (Head and Neck Carcinoma); assay: as above
# How it was run: as §1
# 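For Bliss excess, mean over the matrix in this document: after 72 h of two-drug dosing.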
SMILES,Bliss excess [1],Bliss excess [2],Bliss excess [3],Bliss excess [4],Bliss excess [5],Bliss excess [6],Bliss excess [7],Bliss excess [8],Bliss excess [9],Bliss excess [10],Bliss excess [11],Bliss excess [12],Bliss excess [13],Bliss excess [14],Bliss excess [15],Bliss excess [16],Bliss excess [17],Bliss excess [18],Bliss excess [19],Bliss excess [20],combination Emax [21],combination Emax [22],combination Emax [23],combination Emax [24],combination Emax [25],combination Emax [26],combination Emax [27],combination Emax [28],combination Emax [29],combination Emax [30],combination Emax [31],combination Emax [32],combination Emax [33],combination Emax [34],combination Emax [35],combination Emax [36],combination Emax [37],combination Emax [38],combination Emax [39],combination Emax [40]
"COc1nnc2ccc(N3CCC(c4ccc(OCCN5CCN(C)C(=O)[C@H]5C)cc4)CC3)nn12 [AZD5153] + CN(CC[C@H](CSC1=CC=CC=C1)NC2=C(C=C(C=C2)S(=O)(=O)NC(=O)C3=CC=C(C=C3)N4CCC(CC4)[C@H](C5=CC=CC=C5C6=CC=C(C=C6)Cl)O)S(=O)(=O)C(F)(F)F)CCO [AZD4320] (first compound max 1 µM, 7x7, partner max 1 µM)",0.0015,-0.0296,0.0292,0.0463,0.0355,0.028,0.0577,-0.0021,0.0058,0.037,0.0276,0.0168,0.0545,0.0754,-0.0004,-0.005,0.0051,-0.0031,0.0252,-0.0093,0.48,0.521,0.483,0.513,0.308,0.938,0.454,0.509,0.269,0.568,1,0.628,0.393,1,0.548,0.392,0.417,0.699,0.936,0.452
"CC(=O)c1c(C)c2cnc(Nc3ccc(N4CCNCC4)cn3)nc2n(C2CCCC2)c1=O [Palbociclib] + CN(CC[C@H](CSC1=CC=CC=C1)NC2=C(C=C(C=C2)S(=O)(=O)NC(=O)C3=CC=C(C=C3)N4CCC(CC4)[C@H](C5=CC=CC=C5C6=CC=C(C=C6)Cl)O)S(=O)(=O)C(F)(F)F)CCO [AZD4320] (first compound max 10 µM, 7x7, partner max 1 µM)",-0.0826,-0.0496,-0.0307,-0.0393,-0.041,0.0272,-0.0178,-0.0438,-0.085,-0.115,-0.0087,-0.0257,-0.0374,0.0673,-0.0344,-0.0753,-0.0302,-0.0486,-0.0491,-0.058,0.292,0.381,0.288,0.211,0.165,0.841,0.332,0.657,0.323,0.647,1,0.37,0.445,0.984,0.667,0.136,0.466,0.45,0.891,0.277
"C[C@@H](c1ccc2nccn2c1)n1nnc2ncc(-c3cnn(C)c3)nc21 [Savolitinib] + CN(CC[C@H](CSC1=CC=CC=C1)NC2=C(C=C(C=C2)S(=O)(=O)NC(=O)C3=CC=C(C=C3)N4CCC(CC4)[C@H](C5=CC=CC=C5C6=CC=C(C=C6)Cl)O)S(=O)(=O)C(F)(F)F)CCO [AZD4320] (first compound max 1 µM, 7x7, partner max 1 µM)",-0.0216,-0.0639,-0.0001,-0.0378,0.0065,-0.0704,0.0021,0.0359,-0.0909,-0.0551,-0.0256,-0.03,-0.0197,-0.0251,-0.048,-0.0357,-0.0222,-0.0156,-0.002,-0.0338,0.181,0.0904,0.236,0.15,0.258,0.745,0.268,0.538,0.26,0.112,1,0.283,0.152,0.873,0.33,0.183,0.402,0.162,0.888,0.187

# Source: the supplement of paper PMC11061612
